In US10213516B2, “Labelled carboxylic acids and their uses in molecular imaging” (Imperial Innovations Limited, priority 2013, dated 2019):
“Also recorded” adds a separate entry of the source.

Key:
[1] = test system: Turpentine-induced inflammatory tissue; experiment: Aseptic inflammation model biodistribution; format: in vivo; conditions: for Inflammation-to-muscle ratio: in vivo; for Accumulation in chemically-induced inflammatory tissues: turpentine-treated muscle
Description: (§1) All animal experiments were performed by licensed investigators in accordance with the United Kingdom Home Office Guidance on the Operation of the Animal (Scientific Procedures) Act 1986 and within the published guidelines for the welfare and use of animals in cancer research.^22 EMT6 tumour cells (2×10^6; 100 μL PBS) were injected subcutaneously on the back of female BALB/c mice (aged 6-8 weeks; Charles River) and grown to ˜150 mm^3. U87 tumours were grown following subcutaneous injection of 5×10^6 cells (100 μL PBS) on the back of female BALB/c nude mice (aged 6-8 weeks; Charles River), with BT474 tumours induced following injection of 5×10^6 cells in matrigel (BD Biosciences; 1:1 ratio PBS-to-matrigel; 100 μL total). Tumour dimensions were measured periodically using a caliper and tumour volumes were calculated by the equation: volume=(π/6)×a×b×c, where a, b, and c represent three orthogonal axes of the tumour. Inflammation was performed in an aseptic inflammation model as previously described.^23
(§2) [^18F]FDMP (˜3.7 MBq) was injected via the tail vein of anaesthetized EMT6 tumour-bearing BALB/c mice. The mice were maintained under anesthesia and sacrificed by exsanguination via cardiac puncture at 2, 15, 30, 60, 120 or 180 min post radiotracer injection and tissues harvested. Biodistribution studies with BT474 and U87 tumour-bearing nude mice were performed 60 min post [^18F]FDMP injection. Tissue radioactivity was determined on a gamma counter (Cobra II Auto-Gamma counter, Packard Biosciences Co.) and decay corrected. 10 μL standards from a 1:100 dilution of the stock activity were also counted for data normalization. Plasma was obtained from terminal blood samples following centrifugation (14000 g, 5 min). Data were expressed as percent injected dose per gram of tissue (% ID/g).

[2] = test system: EMT6 tumours; experiment: PET imaging of EMT6 tumour-bearing mice; format: in vivo; conditions: 60 min
Description: All animal experiments were performed by licensed investigators in accordance with the United Kingdom Home Office Guidance on the Operation of the Animal (Scientific Procedures) Act 1986 and within the published guidelines for the welfare and use of animals in cancer research.^22 EMT6 tumour cells (2×10^6; 100 μL PBS) were injected subcutaneously on the back of female BALB/c mice (aged 6-8 weeks; Charles River) and grown to ˜150 mm^3. […] Tumour dimensions were measured periodically using a caliper and tumour volumes were calculated by the equation: volume=(π/6)×a×b×c, where a, b, and c represent three orthogonal axes of the tumour. […]
[^18F]FDMP imaging scans were carried out on a GENISYS^4 small animal PET scanner (Sofie Biosciences), following a bolus i.v. injection of ˜1.85 MBq of the radiotracer into tumour-bearing mice. […] Tumour radioactivity were normalized to that of the whole body to obtain the normalized uptake value (NUV) to permit comparison of data obtained using the two scanners.
Dynamic [^18F]FDMP imaging scans were carried outa dedicated small animal PET scanner (Siemens Inveon PET module, Siemens Medical Solutions USA, Inc., Malvern, Pa., USA) following a bolus i.v. injection of ˜3.7 MBq of the radiotracer into tumour-bearing mice. […] The count densities were averaged for all VOIs at each time point to obtain a time versus radioactivity curve (TAC). […]

[3] = test system: DU145 prostate adenocarcinoma tumours; experiment: PET imaging of DU145 tumour-bearing mice; format: in vivo; conditions: for Tumour visibility by PET: DU145, 50-60 min static scans; for Tumour to whole body normalized uptake: 50-60 min static scans
Description: [^18F]FDMP imaging scans were carried out on a GENISYS^4 small animal PET scanner (Sofie Biosciences), following a bolus i.v. injection of ˜1.85 MBq of the radiotracer into tumour-bearing mice. Static scans were acquired for 10 min and images were reconstructed using maximum-likelihood expectation maximization. In a different cohort of mice, dynamic PET imaging was performed on a Siemens Inveon PET module, (Siemens Medical Solutions USA) as described in supplementary materials. Dynamic PET imaging was performed for the [^18F]FDMP and [^18F]FDG comparison study in EMT6 tumour-bearing mice. Static scans on the GENISYS^4 were used for all other experiments. Siemens Inveon Research Workplace software was used for visualization of radiotracer uptake in the tumour and to define the three-dimensional volumes of interest (VOI). Tumour radioactivity were normalized to that of the whole body to obtain the normalized uptake value (NUV) to permit comparison of data obtained using the two scanners.

[4] = test system: U87 glioma human xenografts; experiment: Biodistribution in U87 human glioblastoma-bearing BALB/c nude mice; format: in vivo; conditions: for Tumour/brain ratio: U87 glioma, 60 min post injection; for Tumour uptake: U87 xenografts, 60 min post-radiotracer injection
Description: as §1, §2

[5] = test system: BT474 cells; experiment: Metabolism experiments in cells (LC-MS); format: cell-based, human
Description: (§3) EMT6 murine breast cancer cells (LGC Standards) were grown in Waymouth's medium (Life Technologies), with U87 human glioma cells (LGC Standards) grown in DMEM medium (Life Technologies). DU145 (kind donation from Dr. Almut Schulze, CRUK London Research Institute) and BT474 (LGC Standards) were grown in RPMI (Life Technologies). All media were supplemented with 2.5 mL penicillin/streptomycin (10,000 IU·mL^−1/10,000 […]) and 2 mM L-glutamine (Life Technologies). Waymouth's medium contained 15% fetal calf serum (FCS), with 10% FCS added to DMEM and RPMI. All cells were propagated at 37° C. in a humidified atmosphere containing 5% CO2.
BT474 cells were seeded in 12-well plates at 2×10^5 cells per well. For measurement of FDMP uptake, the media was replaced with media supplemented with 500 μM FDMP and incubated for the indicated times. All media samples were harvested at the same time and immediately diluted into ice-cold extraction solution of methanol, acetonitrile, and water (5:3:2) (All chemicals were purchased from Fisher Scientific and were LC-MS grade). Cell numbers were assumed to be identical. The amount of extraction solution added to each well was determined by cell counts obtained from a counting plate run in parallel (1 mL/2×10^6 cells). Extracts were vortexed for 10 min at 4° C. and then centrifuged at 16,500 g at 4° C. for 15 min. Supernatants were removed and analyzed by LC-MS (ZIC-pHelic HPLC columns and Exactive Plus Orbitrap MS (ThermoScientific). Data was analyzed using Xcalibur and LCQuan software (ThermoScientific). FDMP and FAC standards were run in isolation for quantification.

[6] = test system: BT474 tumours; experiment: Biodistribution in BT474 tumour-bearing nude mice; format: in vivo, BALB/c nude mice; conditions: 60 min post injection
Description: as §1, with “Inflammation was performed in an aseptic inflammation model as previously described.^23” left out
[^18F]FDMP (˜3.7 MBq) was injected via the tail vein of anaesthetized EMT6 tumour-bearing BALB/c mice. […] Tissue radioactivity was determined on a gamma counter (Cobra II Auto-Gamma counter, Packard Biosciences Co.) and decay corrected. 10 μL standards from a 1:100 dilution of the stock activity were also counted for data normalization. […] Data were expressed as percent injected dose per gram of tissue (% ID/g).

[7] = PET/CT imaging in healthy BALB/c mice; format: in vivo
[8] = In vivo radiotracer stability and metabolism (radio-HPLC of tissue extracts); design: species or system BALB/c non-tumour-bearing mice
Description: Radiolabeled metabolites from plasma and tissues were quantified using an adapted method.^24 BALB/c non-tumour-bearing mice under general anesthesia (2.5% isofluorane; non-recovery anesthesia) were administered a bolus i.v. injection of [^18F]FDMP (˜7.4 MBq), and sacrificed by exsanguination via cardiac puncture 30 min post radiotracer injection. Heart, urine and liver samples were immediately snap-frozen in liquid nitrogen. Aliquots of heparinized blood were rapidly centrifuged (14000 g, 5 min, 4° C.) to obtain plasma. Plasma samples were subsequently snap-frozen in liquid nitrogen and kept on dry ice prior to analysis. For analysis, samples were thawed and kept at 4° C. immediately before use. To ice cold plasma and urine (200 μL) was added ice-cold methanol (600 μL) and the resulting suspension centrifuged (14000 g; 4° C.; 3 min). 300 μL of the resulting supernatant was added to 1 mL ice cold mobile phase. […] Samples were analyzed on an Agilent 1100 series HPLC system (Agilent Technologies, Santa Clara, Calif., USA), using an isocratic method of 10% MeOH in an ion pair buffer prepared as follows and a μBondapak C18 semi preparative HPLC column (Waters, Milford, Mass., USA; […]). […]

[9] = test system: EMT6 murine breast cancer cells; experiment: [18F]FDMP uptake in cells (gamma counting); format: cell-based
Description: as §3
EMT6 cells (2×10^5) were plated into 6-well plates overnight prior to analysis. On the day of the experiment fresh growth medium containing 0.74 MBq [^18F]FDMP were added to individual wells (1 mL/well). Cell uptake was measured over 60 min post radiotracer addition. Plates were placed on ice, washed 3 times with ice-cold PBS and lysed in RIPA buffer (Thermo Fisher Scientific Inc.; 1 mL, 10 min). Cell lysates were transferred to counting tubes and decay-corrected radioactivity was determined on a gamma counter (Cobra II Auto-Gamma counter, Packard Biosciences Co.). Aliquots were snap-frozen and used for protein determination following radioactive decay using a BCA 96-well plate assay (Thermo Fisher Scientific Inc.). In addition, 10 μL standards from a 0.74 MBq/mL stock solution were counted to quantitate % radiotracer uptake. For carnitine treatment, cells were incubated with 10 μM L-carnitine for the duration of the uptake time course.

[10] = test system: orthotopic U87 brain tumour; experiment: PET imaging in orthotopic U87 brain tumour model; format: in vivo; conditions: 15-30 min and 45-60 min post radiotracer injection
Description: FIG. 14. [^18F]FDMP and [^18F]FDG uptake in an orthotopic U87 brain tumour model. PET images were acquired 15-30 min and 45-60 min post radiotracer injection 6 weeks after intracranial injection of U87 glioma cells. White arrows indicate the tumour.
[^18F]FDMP and [^18F]FDG uptake in an orthotopic U87 brain tumour model was analysed (FIG. 14). […] The background is very low, so good staining is achieved.

[11] = test system: EMT6 murine breast adenocarcinoma xenografts; experiment: Biodistribution time course in EMT6 tumour-bearing BALB/c mice; format: in vivo
Description: as §1, §2

[12] = test system: tumour; conditions: cited from earlier work

## [^18F]2-fluoro-2-deoxyglucose [[^18F]FDG, reference compound]
[1]
  Inflammation-to-muscle ratio: 2.66
  Accumulation in chemically-induced inflammatory tissues: 5.86±0.68 % ID/g
[2]
  Tumour to whole body normalized uptake: 1.02±0.16 NUV
[3]
  Tumour visibility by PET: not visible above background
[3]; DU145 prostate tumours
  Tumour to whole body normalized uptake: 0.47±0.09 NUV
[4]
  Tumour/brain ratio: 1.3
  Tumour uptake: 11.0±1.1 % ID/g

## CC(C)(CF)C(=O)O [[^19F]FDMP]
[5]; 500 μM in medium
  Uptake by BT474 cells detected by mass spectrometry: rapidly taken up
[5]; 500 μM in medium, BT474 cells
  Intracellular metabolites observed by LC-MS: no other metabolites were observed

## CC(C)(C[18F])C(=O)O [[^18F]FDMP, [^18F]3-fluoro-2,2-dimethylpropanoic acid]
[1]
  Inflammation-to-muscle ratio: 2.36
  Accumulation in chemically-induced inflammatory tissues: 6.53±1.13 % ID/g
[6]
  Tumour radioactivity: 7.6±1.2 % ID/g
[2]
  Tumour to whole body normalized uptake: 1.15±0.13 NUV
[3]
  Tumour visibility by PET: clearly discernable
[3]; DU145 prostate tumours
  Tumour uptake higher than [18F]FDG: 54%
  Tumour to whole body normalized uptake: 0.73±0.07 NUV
[7]
  Defluorination of the tracer (retention in bones): no defluorination
[8]; 30 min post injection
  Stability in plasma, liver and heart by radioHPLC: no degradation; also recorded: only peaks of the parent compound detectable
[8]; urine, 30 min
  Parent peak fraction in urine: 61.8±6.6 % radioactivity
[4]
  Tumour/brain ratio: 2.5
  Tumour uptake: 9.35±1.0 % ID/g
[4]; compared with [18F]FDG
  Uptake in the normal brain: significantly lower than [^18F]FDG
[9]; 30 min of incubation
  Uptake into EMT6 tumour cells: 1.40±0.10 % radioactivity/mg protein
[9]; 60 min post radiotracer addition (plateau)
  Uptake into EMT6 tumour cells: 1.47±0.04 % radioactivity/mg protein
[9]; incubation with 10 μM L-carnitine
  Uptake increase compared to control cells: 44%
[10]
  Tumour staining in PET images: good staining of the U87 tumour was visible
[11]; 2, 15, 30 and 60 minutes after administration
  Bone uptake: low bone uptake
[11]; EMT6, after 60 minutes
  Tumour to blood ratio: up to 2.32
[11]; EMT6 tumour, 30 min post injection
  Tumour-associated radioactivity: 9.3±1.0 % ID/g
[11]; EMT6 tumour, 120 min post radiotracer injection
  Tumour-associated radioactivity: 9.8±2.0 % ID/g
[11]; EMT6 tumour, 180 min
  Tumour-associated radioactivity: 6.3±0.7 % ID/g
[11]; EMT6 tumour, by 180 min
  Reduction of tumour-associated radioactivity: 36%
[11]; EMT6 tumours, 60 min post injection
  Tumour radioactivity: 9.1±0.5 % ID/g
[11]; gamma counting and dynamic PET
  Blood-brain barrier passage: able to cross the blood-brain barrier; also recorded: passes the blood brain barrier

## CC([18F])C(=O)O (centres unmarked) [[^18F]FPA, [^18F]2-fluoropropionic acid]
[12]; 60 minutes post-injection
  Tumour-to-brain ratio: 1.27
[12]; Table 1 in reference 28
  Tumour to blood ratio: 1.03

## O=C(O)CF [[^19F]FAC, [^19F]fluroacetate, reference compound]
[5]; 500 μM in medium, BT474 cells
  Intracellular metabolites observed by LC-MS: only the parent compound and [^19F]fluorocitrate were observed
[5]; BT474 cells, LC-MS
  Effect on intracellular metabolite pools (citrate, cis-aconitate, alpha-ketoglutarate): significant increase in citrate and cis-aconitate, together with significant decrease in alpha-ketoglutarate
